Our source for the inhibition values is patent US8906925B2, “Pyrido[4,3-B]indoles containing rigid moieties” (Medivation Technologies, Inc., priority 2008, dated 2014).

One experiment concerns the target histamine receptor H1 (Homo sapiens, UniProt P35367). Kind of experiment: Histamine H1 radioligand binding ([3H]Pyrilamine). The settings on record: read-out: Histamine Binding (1 μM) H1, percent inhibition of specific binding, 1 μM. On the procedure: To evaluate in radioligand binding assays the activity of compounds of the invention, human recombinant histamine H1 receptor expressed in Chinese hamster ovary (CHO) cells (De Backer, M. D. et al., Biochem. Biophys. Res. Comm. 197(3):1601, 1993) in a modified Tris-HCl buffer (50 mM Tris-HCl, pH 7.4, 2 mM MgCl2, 100 mM NaCl, 250 mM Sucrose) was used. Compounds of the invention were incubated with 1.2 nM [^3H]Pyrilamine for 180 min. at 25° C. Non-specific binding was estimated in the presence of 1 μM pyrilamine. Receptor proteins were filtered and washed, the filters were then counted to determine [^3H]Pyrilamine specifically bound. Compounds were screened at 1 μM or lower, using 1% DMSO as vehicle. Biochemical assay results are presented as the percent inhibition of specific binding in Table 8.

The target of experiment [1] is human dopamine D2L receptor (Homo sapiens, UniProt P14416). Description: Dopamine D2L radioligand binding ([3H]Spiperone). The settings on record: compound at 1 μM. From the text: Non-specific binding was estimated in the presence of […] Haloperidol. Receptor proteins were filtered and washed, the filters were then counted to determine [^3H]Spiperone specifically bound. […] Biochemical assay results are presented as the percent inhibition of specific binding in Table 9.
Sequence of human dopamine D2L receptor (P14416 whole entry): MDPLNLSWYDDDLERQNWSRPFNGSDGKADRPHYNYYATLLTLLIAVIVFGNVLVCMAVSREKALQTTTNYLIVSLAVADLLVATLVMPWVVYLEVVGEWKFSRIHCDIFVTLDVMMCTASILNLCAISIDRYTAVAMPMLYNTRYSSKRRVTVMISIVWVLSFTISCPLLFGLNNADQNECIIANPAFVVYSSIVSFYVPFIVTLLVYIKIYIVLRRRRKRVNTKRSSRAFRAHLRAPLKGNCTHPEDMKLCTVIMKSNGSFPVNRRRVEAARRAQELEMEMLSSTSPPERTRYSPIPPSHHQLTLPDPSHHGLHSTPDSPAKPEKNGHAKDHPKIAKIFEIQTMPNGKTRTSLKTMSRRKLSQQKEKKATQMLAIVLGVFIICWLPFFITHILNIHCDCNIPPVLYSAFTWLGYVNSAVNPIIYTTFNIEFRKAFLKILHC

Where [2] appears, read: […] [3H]Spiperone, read-out: Inhibition of ligand binding, Dopamine D2L (percent inhibition of specific binding).
[3] abbreviates: percent inhibition of specific binding, read-out: Inhibition of ligand binding, Dopamine D2L.

Where two headings read alike, the source gives them in different places.

Sequence of histamine receptor H1 (P35367 whole entry): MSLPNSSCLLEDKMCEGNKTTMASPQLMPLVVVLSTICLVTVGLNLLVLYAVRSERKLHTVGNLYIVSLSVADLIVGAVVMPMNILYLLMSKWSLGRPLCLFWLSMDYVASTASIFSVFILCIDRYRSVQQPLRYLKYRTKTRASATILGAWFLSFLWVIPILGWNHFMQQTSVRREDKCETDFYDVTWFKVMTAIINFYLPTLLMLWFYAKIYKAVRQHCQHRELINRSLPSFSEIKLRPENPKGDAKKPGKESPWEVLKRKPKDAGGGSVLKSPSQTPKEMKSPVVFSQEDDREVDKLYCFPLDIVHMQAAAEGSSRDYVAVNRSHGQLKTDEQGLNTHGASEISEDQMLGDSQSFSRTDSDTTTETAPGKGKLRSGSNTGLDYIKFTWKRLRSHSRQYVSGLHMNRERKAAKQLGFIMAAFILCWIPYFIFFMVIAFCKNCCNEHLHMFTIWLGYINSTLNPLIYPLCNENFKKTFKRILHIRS

Regarding `C/C=C(/c1ccccc1)n1c2c(c3cc(C)ccc31)CN(C)CC2` [compound 408, (Z)-2,8-dimethyl-5-(1-phenylprop-1-enyl)-2,3,4,5-tetrahydro-1H-pyrido[4,3-b]indole], the values for the inhibition at 1 µM (at histamine receptor H1; in experiment [1] (setting [2])) were 98% and 44%, respectively. Consider `COCCCN1CCc2c(c3cc(C)ccc3n2/C=C(\C)c2ccncc2)C1` [compound 400, (E)-2-(3-methoxypropyl)-8-methyl-5-(2-(pyridin-4-yl)prop-1-enyl)-2,3,4,5-tetrahydro-1H-pyrido[4,3-b]indole], for which the inhibition (commonly the relative decrease from the control value, in per cent) at 1 µM turned out to be 22% at histamine receptor H1 and 94% in experiment [1] (setting [2]). Take `COCCNc1ccc2c(c1)c1c(n2/C=C(\C)c2ccncc2)CCN(C)C1` [compound 440]: the inhibition at 1 µM at histamine receptor H1 turned out to be 4%; in experiment [1] (setting [2]), 16%.

Regarding `Cc1ccc2c(c1)c1c(n2C(C)(C)C(O)c2ccccc2)CCN(C)C1` (stereo not shown) [Compound No. 467, 2-(2,8-dimethyl-3,4-dihydro-1H-pyrido[4,3-b]indol-5(2H)-yl)-2-methyl-1-phenylpropan-1-ol], the inhibition at 1 µM at histamine receptor H1 amounted to 54%; in experiment [1] (setting [2]), 7%.

As for `CCCc1ccc(C#Cn2c3c(c4cc(Cl)ccc42)CN(C)CC3)cn1` [Compound No. 487, 8-chloro-2-methyl-5-((6-propylpyridin-3-yl)ethynyl)-2,3,4,5-tetrahydro-1H-pyrido[4,3-b]indole], the inhibition at 1 µM turned out to be 75% on histamine receptor H1 and 17% in experiment [1] (setting [2]). As to `C/C(=C/n1c2c(c3cc(Cl)ccc31)CN(C)CC2)c1ccncc1` [compound 384, (Z)-8-chloro-2-methyl-5-(2-(pyridin-4-yl)prop-1-enyl)-2,3,4,5-tetrahydro-1H-pyrido[4,3-b]indole], the results for the inhibition at 1 µM (on histamine receptor H1; in experiment [1] (setting [2])) were 66% and 91%, respectively. As to `C/C(=C/c1ccccc1)n1c2c(c3cc(C)ccc31)CN(C)CC2` [compound 429, (Z)-2,8-dimethyl-5-(1-phenylprop-1-en-2-yl)-2,3,4,5-tetrahydro-1H-pyrido[4,3-b]indole], the inhibition at 1 µM on histamine receptor H1 was 101%; in experiment [1] (setting [2]) it was 30%.

Turning to `C/C(=C\n1c2c(c3cc(C)ccc31)CN(C)CC2)C1CCCCC1` [Compound 320, (E)-5-(2-cyclohexylprop-1-enyl)-2,8-dimethyl-2,3,4,5-tetrahydro-1H-pyrido[4,3-b]indole], the inhibition at 1 µM worked out at 65% at histamine receptor H1 and 61% in experiment [1] (setting [3]). Consider `C/C(=C\n1c2c(c3cc(Cl)ccc31)CN(C)CC2)C1CCCCC1` [Compound 367, (E)-8-chloro-5-(2-cyclohexylprop-1-enyl)-2-methyl-2,3,4,5-tetrahydro-1H-pyrido[4,3-b]indole], for which the inhibition at 1 µM was determined as 64% at histamine receptor H1 and 48% in experiment [1] (setting [2]). On to `C/C(=C\n1c2c(c3cc(Cl)ccc31)CNCC2)c1ccncc1` [compound 402, (E)-8-chloro-5-(2-(pyridin-4-yl)prop-1-enyl)-2,3,4,5-tetrahydro-1H-pyrido[4,3-b]indole], for which the inhibition at 1 µM came to 15% at histamine receptor H1 and 87% in experiment [1] (setting [2]).

For the compound `C/C(=C\n1c2c(c3cc(N4CCCC4)ccc31)CN(C)CC2)c1ccncc1` [compound 446, (E)-2-methyl-5-(2-(pyridin-4-yl)prop-1-enyl)-8-(pyrrolidin-1-yl)-2,3,4,5-tetrahydro-1H-pyrido[4,3-b]indole], the inhibition at 1 µM at histamine receptor H1 was -4%; in experiment [1] (setting [2]), 42%. On the same counts, the results for `C/C(=C\n1c2c(c3cc(Cl)ccc31)CN(C)CC2)c1ccnc(C)c1` [compound 394, (E)-8-chloro-2-methyl-5-(2-(2-methylpyridin-4-yl)prop-1-enyl)-2,3,4,5-tetrahydro-1H-pyrido[4,3-b]indole] are 75% and 99%.

On to `C/C(=C\n1c2c(c3cc(Cl)ccc31)CN(C)CC2)c1cncnc1` [Compound 346, (E)-8-chloro-2-methyl-5-(2-(pyrimidin-5-yl)prop-1-enyl)-2,3,4,5-tetrahydro-1H-pyrido[4,3-b]indole], for which the inhibition at 1 µM on histamine receptor H1 came out at 17%; in experiment [1] (setting [3]), 26%. Regarding `COc1ccc(C#Cn2c3c(c4cc(C)ccc42)CN(C)CC3)cn1` [Compound No. 494, 5-((6-methoxypyridin-3-yl)ethynyl)-2,8-dimethyl-2,3,4,5-tetrahydro-1H-pyrido[4,3-b]indole], the inhibition at 1 µM stood at 2% at histamine receptor H1 and 13% in experiment [1] (setting [2]).

As for `CC(C)c1ccc2c3c(n(CC(C)(O)c4ccncc4)c2c1)CCN(C)C3` (stereo not shown) [Compound 344, 1-(7-isopropyl-2-methyl-3,4-dihydro-1H-pyrido[4,3-b]indol-5(2H)-yl)-2-(pyridin-4-yl)propan-2-ol], the inhibition at 1 µM stood at 7% at histamine receptor H1 and 10% in experiment [1] (setting [3]). Regarding `Cc1ccc2c(c1)c1c(n2C#Cc2ccc(C3CC3)nc2)CCN(C)C1` [Compound No. 496, 5-((6-cyclopropylpyridin-3-yl)ethynyl)-2,8-dimethyl-2,3,4,5-tetrahydro-1H-pyrido[4,3-b]indole], the inhibition at 1 µM on histamine receptor H1 stood at 15%; in experiment [1] (setting [2]) it was 25%. For `C/C(=C\n1c2c(c3cc(C)ccc31)CN(C)CC2)c1cc(F)c(O)c(F)c1` [compound 452, (E)-4-(1-(2,8-dimethyl-3,4-dihydro-1H-pyrido[4,3-b]indol-5(2H)-yl)prop-1-en-2-yl)-2,6-difluorophenol], the inhibition at 1 µM on histamine receptor H1 was determined as 18%; in experiment [1] (setting [2]) it was 71%. For `C/C(=C\n1c2c(c3cc(C)ccc31)CN(C)CC2)c1cccs1` [Compound 294, (E)-2,8-dimethyl-5-(2-(thiophen-2-yl)prop-1-enyl)-2,3,4,5-tetrahydro-1H-pyrido[4,3-b]indole], the inhibition at 1 µM (on histamine receptor H1; in experiment [1] (setting [3])) was 83% each time. In the case of `C/C(=C\n1c2c(c3cc(C)ccc31)CN(C)[C@@H](C)C2)c1ccncc1` [compound 389, (S,E)-2,3,8-trimethyl-5-(2-(pyridin-4-yl)prop-1-enyl)-2,3,4,5-tetrahydro-1H-pyrido[4,3-b]indole], the inhibition at 1 µM on histamine receptor H1 is 39%; in experiment [1] (setting [2]), 49%. In the case of `CNC(=O)c1ccc(C#Cn2c3c(c4cc(C)ccc42)CN(C)CC3)cc1F` [Compound No. 488, 4-((2,8-dimethyl-3,4-dihydro-1H-pyrido[4,3-b]indol-5(2H)-yl)ethynyl)-2-fluoro-N-methylbenzamide], the values for the inhibition at 1 µM (on histamine receptor H1; in experiment [1] (setting [2])) were 9% and 19%, respectively.

Turning to `CN1CCc2c(c3cc(Cl)ccc3n2C=C(c2ccccc2)c2ccccc2)C1` [compound 407, 8-chloro-5-(2,2-diphenylvinyl)-2-methyl-2,3,4,5-tetrahydro-1H-pyrido[4,3-b]indole], the inhibition at 1 µM on histamine receptor H1 is 10%; in experiment [1] (setting [2]) it was 74%. Turning to `Cc1ccc2c(c1)c1c(n2CC(C)(O)c2ccncc2)CCN(CC(F)(F)F)C1` (stereo not shown) [Compound 341, 1-(8-methyl-2-(2,2,2-trifluoroethyl)-3,4-dihydro-1H-pyrido[4,3-b]indol-5(2H)-yl)-2-(pyridin-4-yl)propan-2-ol], the inhibition at 1 µM stood at 11% at histamine receptor H1 and 2% in experiment [1] (setting [3]). `C/C(=C(/C)n1c2c(c3cc(C)ccc31)CN(C)CC2)c1ccncc1` [compound 403, (E)-2,8-dimethyl-5-(3-(pyridin-4-yl)but-2-en-2-yl)-2,3,4,5-tetrahydro-1H-pyrido[4,3-b]indole]: the inhibition at 1 µM on histamine receptor H1 stood at 37%; in experiment [1] (setting [2]), 66%. For the compound `CN1CCc2c(c3cc(Cl)ccc3n2C#Cc2ccc(C(F)(F)F)nc2)C1` [Compound No. 486, 8-chloro-2-methyl-5-((6-(trifluoromethyl)pyridin-3-yl)ethynyl)-2,3,4,5-tetrahydro-1H-pyrido[4,3-b]indole], the inhibition at 1 µM on histamine receptor H1 came to 22%; in experiment [1] (setting [2]) it was 14%.

`C/C(=C\n1c2c(c3cc(C)ccc31)CN(C)CC2)c1cccc(C(=O)N(C)C)c1` [compound 457, (E)-3-(1-(2,8-dimethyl-3,4-dihydro-1H-pyrido[4,3-b]indol-5(2H)-yl)prop-1-en-2-yl)-N,N-dimethylbenzamide]: the values for the inhibition at 1 µM (on histamine receptor H1; in experiment [1] (setting [2])) were 37% and 53%, respectively.

`COc1c(F)cc(/C(C)=C/n2c3c(c4cc(C)ccc42)CN(C)CC3)cc1F` [compound 456, (E)-5-(2-(3,5-difluoro-4-methoxyphenyl)prop-1-enyl)-2,8-dimethyl-2,3,4,5-tetrahydro-1H-pyrido[4,3-b]indole]: the inhibition at 1 µM was determined as 17% on histamine receptor H1 and 80% in experiment [1] (setting [2]). Take `CC(=O)N(C)c1ccc2c(c1)c1c(n2/C=C(\C)c2ccncc2)CCN(C)C1` [compound 439, (E)-N-methyl-N-(2-methyl-5-(2-(pyridin-4-yl)prop-1-enyl)-2,3,4,5-tetrahydro-1H-pyrido[4,3-b]indol-8-yl)acetamide]: the inhibition at 1 µM at histamine receptor H1 is 9%; in experiment [1] (setting [2]) it was 16%.

On to `C/C(=C\n1c2c(c3cc(C)ccc31)CN(C)CC2)c1cc(Cl)cc(Cl)c1` [compound 410, (E)-5-(2-(3,5-dichlorophenyl)prop-1-enyl)-2,8-dimethyl-2,3,4,5-tetrahydro-1H-pyrido[4,3-b]indole], for which the inhibition at 1 µM in experiment [1] (setting [2]) came to 47%.
